Reference: patent publication US9181577B2, “Treatment of chronic pelvic pain syndrome” (Northwestern University, priority 2010, dated 2015)

test system: pelvic pain behavior in EAP NOD mice; experiment: Mast cell function inhibitors on established pelvic pain behavior in EAP model (von Frey tactile allodynia); format: in vivo; settings: 10 mg/kg each drug, intraperitoneal, at day 10 after PAg injection; tested one hour after drug administration
Experimental: Mice injected with rat prostate antigen (PAg) were tested at baseline and 10 days after injection for the development of pain behavior. Mice were treated at day 10 by intraperitoneal injection with saline (Control, A), 10 mg/kg each of cetrizine (H1, B), ranitidine (H2, C), Cromolyn sodium (MC stabilizer, D) or all three drugs (Combination, E) in a 200 μl volume. Following blinding of treatment and control groups, pelvic pain behavior was tested one hour after drug administration.
The experimental autoimmune prostatitis (EAP) model was selected for experiments conducted during development of embodiments of the present invention. Autoimmunity is one of the etiologies for patients with CPPS. Rat prostate antigen instillation in NOD mice provokes a chronic inflammation that is multifocal and evenly distributed in all the prostatic lobes. Pelvic pain was examined in NOD and C57BL/6 (B6) mice using quantitative behavior testing methods to assess tactile sensitivity of the suprapubic region. […] When expressed as increase in pain from baseline there was an approximately 350% increase in pain behavior compared to sham controls (SEE FIG. 1). This indicates the development of chronic pelvic pain in EAP mice and is the first report of chronic pain symptoms in an animal model of prostatitis.
Pelvic pain behavior in the EAP model was inhibited following the establishment of pain. EAP was induced in NOD mice and pelvic pain behavior at baseline and 10 days after disease onset was measured. Mice were administered a mast cell stabilizer, cromolyn sodium; a histamine receptor 1 antagonist, cetirizine; a histamine receptor 2 antagonist, ranitidine; and a combination of all three pharmacological agents or saline as control. Pelvic pain behavior was tested one hour after drug administration.

Point of comparison: CNC(=C[N+](=O)[O-])NCCSCc1ccc(CN(C)C)o1 [ranitidine], “reduction of pain behavior” value 15.9%. Against it:
- O=C(O)COCCN1CCN(C(c2ccccc2)c2ccc(Cl)cc2)CC1 (stereo not drawn) [cetirizine] — lower, 13.6%
- O=C(O)c1cc(=O)c2c(OCC(O)COc3cccc4oc(C(=O)O)cc(=O)c34)cccc2o1 [cromolyn sodium] — higher, 39.6%
